{"source": "patent EP1749819A1", "about": "“(rac)-N-piperidinyl-5-(4-chlorophenyl)-1-(2,4-dichlorophenyl)-4,5-dihydro-1H-pyrazole-3-carboxamide hydrates” (LABORATORIOS DEL DR. ESTEVE, S.A., priority 2005, dated 2007)", "key": {"[1]": {"target": "T1, transfected human CB1 and CB2 receptors: CB2-Receptor (Homo sapiens, UniProt P34972)", "T1 construct": "purchased Receptor Biology; Inc", "T1 sequence (P34972 whole entry)": "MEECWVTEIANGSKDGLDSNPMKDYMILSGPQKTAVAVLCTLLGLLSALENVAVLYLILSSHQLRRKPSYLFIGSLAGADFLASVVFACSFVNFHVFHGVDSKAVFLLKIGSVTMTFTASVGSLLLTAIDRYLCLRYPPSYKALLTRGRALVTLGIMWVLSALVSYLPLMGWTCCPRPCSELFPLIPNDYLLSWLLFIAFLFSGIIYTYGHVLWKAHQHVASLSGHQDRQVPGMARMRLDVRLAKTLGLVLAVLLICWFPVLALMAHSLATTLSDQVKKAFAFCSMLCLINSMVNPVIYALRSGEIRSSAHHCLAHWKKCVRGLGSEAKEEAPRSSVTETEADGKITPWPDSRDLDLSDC", "experiment": "In-vitro determination of affinity to CB2 receptor (radioligand [^3H]-CP55940)", "assay_type": "binding", "method": "(§1) Brockie et al., \"Agonist-inverse agonist characterization at CB1 and CB2 cannabinoid receptors of L-759633, L759656 and AM630\", British Journal of Pharmacology, 126, 665-672, (1999), whereby the transfected human CB1 and CB2 receptors of Receptor Biology. Inc. are used. The radioligand used for both receptors is [^3H]-CP55940.\n(§2) The affinity of the inventive substituted pyrazoline compounds to CB1/CB2 receptors was determined as described above."}, "[2]": {"target": "T2, transfected human CB1 and CB2 receptors: CB1-Receptor (Homo sapiens, UniProt P21554)", "T2 construct": "purchased Receptor Biology; Inc", "T2 sequence (P21554 whole entry)": "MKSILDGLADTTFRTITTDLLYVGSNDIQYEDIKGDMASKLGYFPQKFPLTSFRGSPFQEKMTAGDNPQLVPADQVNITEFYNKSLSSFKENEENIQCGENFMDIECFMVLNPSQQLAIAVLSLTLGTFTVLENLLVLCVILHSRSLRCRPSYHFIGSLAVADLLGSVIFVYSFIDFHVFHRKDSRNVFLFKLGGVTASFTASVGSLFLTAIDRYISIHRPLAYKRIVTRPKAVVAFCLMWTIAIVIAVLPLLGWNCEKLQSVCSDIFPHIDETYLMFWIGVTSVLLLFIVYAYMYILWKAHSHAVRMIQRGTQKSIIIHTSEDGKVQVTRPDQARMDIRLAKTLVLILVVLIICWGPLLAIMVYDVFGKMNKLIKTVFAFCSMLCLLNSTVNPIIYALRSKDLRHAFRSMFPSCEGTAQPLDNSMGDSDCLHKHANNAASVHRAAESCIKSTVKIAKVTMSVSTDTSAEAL", "experiment": "In-vitro determination of affinity to CB1 receptor (radioligand [^3H]-CP55940)", "assay_type": "binding", "method": "as §1, §2"}, "Male NMRI mice [3]": {"tested_on": "Male NMRI mice", "experiment": "Mouse tetrad model, agonistic effect", "assay_type": "in vivo", "settings": "5 mg/kg i.v.", "from_the_text": "(§3) Substances with affinity for cannabinoid receptors are known to produce a wide range of pharmacological effects. It is also known that intravenous administration of a substance with affinity for cannabinoid receptors in mice produces analgesia , hypothermia, sedation and catalepsy. Individually, none of these effects can be considered as proof that a tested substance has affinity for cannabinoid-receptors, since all of these effects are common for various classes of centrally active aaents. However, substances, which show all of these effects, i.e. substances that are active in this so-called tetrad model are considered to have affinity for the cannabinoid receptors. It has further been shown that cannabinoid receptor antagonists are higly effective in blocking the effects of a cannabinoid agonist in the mouse tetrad model.\n(§4) The tetrad model is described, for example, in the publication of A. C. Howlett et al, International Union of Pharmacology XXVII. Classification of Cannabinoid Receptors, Pharmacol Rev 54, 161-202 , 2002 and David R. Compton et al., \"In-vivo Characterization of a Specific Cannabinoid Receptor Antagonist (SR141716A) :Inhibition of Tetrahydrocannbinol- induced Responses and Apparent Agonist Activity\", J. Pharmacol. Exp. Ther. 277 , 2, 586-594, 1996. The corresponding parts of the description are hereby incorporated by reference. […]\n(§5) Before testing in the behavioral procedures given below, mice are acclimatized to the experimental setting. Pre-Treatment control values are determined for analgesia hot plate latency (in seconds), rectal temperature, sedation and catalepsy.\nIn order to determine the agonistic activty of the substance to be tested, the mice are injected intravenously with the substance to be tested or the vehicle alone. 15 minutes after injection, latency in hot plate analgesia is measured. Rectal temperature, sedation and catalepsy are measured 20 minutes after injection.\n(§6) The hot plate analgesia is determined according to the method described in Woolfe D. et al. \"The evaluation of analgesic action of pethidine hydrochloride (Demerol)\", J. Pharmacol. Exp. Ther. 80, 300-307,1944.\n(§7) The mice are placed on a hot plate (Harvard Analgesimeter) at 55 ± 0.5 °C until they show a painful sensation by licking their paws or jumping and the time for these sensations to occur is recorded. This reading is considered the basal value (B). […]\n(§8) Fifteen minuts after the administration of the substance to be tested, the mice are again placed on the hot plate and the afore described procedure is repeated. This period is called the post-treatment reading (PT).\n(§9) The degree of analgesia is calculated from the formula: %MPEof Analgesia = (PT−B)/(PC−B) × 100 [formula] […]"}, "Male NMRI mice [4]": {"tested_on": "Male NMRI mice", "experiment": "Mouse tetrad model, antagonistic effect against Win 55212-2", "assay_type": "in vivo", "settings": "5 mg/kg i.v. prior to Win 55212-2 in a dose of 1,25mg/kg i.v.", "from_the_text": "as §3, §4, §5\nIn order to determine the antagonistic activity the identical procedure is used as for the determination of the agonistic effects, but with the difference that the substance to be evaluated for its antagonistic activity is injectected 5 minutes before the intravenous injection of 1.25 mg/kg Win-55,212 a known cannabinoid-receptor agonist.\nas §6, §7, §8, §9"}}}
{"smiles": "O=C(NN1CCCCC1)C1=NN(c2ccc(Cl)cc2Cl)C(c2ccc(Cl)cc2)C1", "note": "(stereo not shown) [Example 1, N-piperidinyl-5-(4-chlorophenyl)-1-(2,4-dichlorophenyl)-4,5-dihydro-1H-pyrazole-3-carboxamide]", "values": [{"measurement": "Ki", "setting": "[1]", "result": "> 1", "unit": "µM"}, {"measurement": "Ki", "setting": "[2]", "result": "< 0.025", "unit": "µM"}, {"measurement": "Agonistic effect A: Hot-Plate test", "setting": "Male NMRI mice [3]; 15 minutes after injection", "result": 0}, {"measurement": "Agonistic effect B: Hypothermia", "setting": "Male NMRI mice [3]; 20 minutes after injection", "result": 0}, {"measurement": "Agonistic effect C: Catalepsy", "setting": "Male NMRI mice [3]; 20 minutes after injection", "result": 0}, {"measurement": "Agonistic effect D: Sedation", "setting": "Male NMRI mice [3]; 20 minutes after injection", "result": 0}, {"measurement": "Antagonistic Effect A: Hot-Plate test", "setting": "Male NMRI mice [4]", "result": 74}, {"measurement": "Antagonistic Effect B: Hypothermia", "setting": "Male NMRI mice [4]", "result": 100}, {"measurement": "Antagonistic Effect C: Catalepsy", "setting": "Male NMRI mice [4]", "result": 100}, {"measurement": "Antagonistic Effect D: Sedation", "setting": "Male NMRI mice [4]", "result": 100}]}
